From BindingDB's records for doi:10.1016/j.chembiol.2017.02.003 (University of Colorado, 2017) come the findings set out here.

As a reminder, the pIC50 is the negative decadic logarithm of the IC50, by convention in mol/L. Low readings indicate a large IC50, high ones a small IC50.

Holding throughout (assay): Caspase Catalytic Activity Assay
Conditions in all cases: pH 7.4

The target of test [1] is T1, Caspase-1 (Homo sapiens, UniProt P29466).
T1 sequence (P29466 whole entry): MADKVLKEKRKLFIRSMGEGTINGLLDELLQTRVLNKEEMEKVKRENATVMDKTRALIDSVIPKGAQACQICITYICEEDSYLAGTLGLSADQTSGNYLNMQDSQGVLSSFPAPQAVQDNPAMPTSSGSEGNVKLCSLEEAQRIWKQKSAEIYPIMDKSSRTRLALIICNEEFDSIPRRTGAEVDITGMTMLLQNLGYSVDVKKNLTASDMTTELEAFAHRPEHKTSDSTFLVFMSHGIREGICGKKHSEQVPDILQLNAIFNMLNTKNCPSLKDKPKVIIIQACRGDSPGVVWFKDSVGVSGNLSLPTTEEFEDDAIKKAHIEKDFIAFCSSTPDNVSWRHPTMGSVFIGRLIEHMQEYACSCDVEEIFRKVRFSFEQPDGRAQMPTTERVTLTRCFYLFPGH
As to the method:
(§1) ECB (Enzo Caspase Buffer): 50 mM HEPES (pH 7.4), 100 mM NaCl, 0.5% Tween 20, 10 mM DTT, and 10% glycerol; SCB (Standard Caspase Buffer): 20 mM PIPES (pH 7.5), 100 mM NaCl, 1 mM EDTA, 10 mM DTT, and 10% sucrose; HCB (High-Citrate Buffer): 50 mM Tris-HCl (pH 7.5), 1 M sodium citrate, 10 mM DTT, and 10% sucrose. Activity was measured as the change in luminescent signal for at least 30 min.

For test [2], the target named is T2, Caspase-3 (Homo sapiens, UniProt P42574).
T2 sequence (P42574 whole entry): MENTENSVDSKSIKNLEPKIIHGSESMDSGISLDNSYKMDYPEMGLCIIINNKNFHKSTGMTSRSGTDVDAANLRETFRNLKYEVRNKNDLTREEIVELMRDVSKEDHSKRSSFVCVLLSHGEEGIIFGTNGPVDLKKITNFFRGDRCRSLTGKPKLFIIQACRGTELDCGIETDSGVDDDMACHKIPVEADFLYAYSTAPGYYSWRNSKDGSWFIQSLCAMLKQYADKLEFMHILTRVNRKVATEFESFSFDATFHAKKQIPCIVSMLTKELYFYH
Here is the method:
as §1

In test [3] the target is T3, Caspase-4 (Homo sapiens, UniProt P49662).
T3 sequence (P49662 whole entry): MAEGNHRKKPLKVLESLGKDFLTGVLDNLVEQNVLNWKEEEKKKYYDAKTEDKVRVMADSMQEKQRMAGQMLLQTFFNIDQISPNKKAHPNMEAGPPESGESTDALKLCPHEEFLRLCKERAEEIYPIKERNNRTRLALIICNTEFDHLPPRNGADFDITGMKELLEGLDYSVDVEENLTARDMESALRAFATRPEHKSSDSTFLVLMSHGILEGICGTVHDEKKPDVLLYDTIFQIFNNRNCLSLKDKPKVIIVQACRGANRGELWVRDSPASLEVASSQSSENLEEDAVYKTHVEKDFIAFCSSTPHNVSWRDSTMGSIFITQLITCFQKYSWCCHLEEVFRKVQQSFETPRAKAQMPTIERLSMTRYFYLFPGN
Here is the method:
as §1

Test [4] deals with T4, Caspase-5 (Homo sapiens, UniProt P51878).
T4 sequence (P51878 whole entry): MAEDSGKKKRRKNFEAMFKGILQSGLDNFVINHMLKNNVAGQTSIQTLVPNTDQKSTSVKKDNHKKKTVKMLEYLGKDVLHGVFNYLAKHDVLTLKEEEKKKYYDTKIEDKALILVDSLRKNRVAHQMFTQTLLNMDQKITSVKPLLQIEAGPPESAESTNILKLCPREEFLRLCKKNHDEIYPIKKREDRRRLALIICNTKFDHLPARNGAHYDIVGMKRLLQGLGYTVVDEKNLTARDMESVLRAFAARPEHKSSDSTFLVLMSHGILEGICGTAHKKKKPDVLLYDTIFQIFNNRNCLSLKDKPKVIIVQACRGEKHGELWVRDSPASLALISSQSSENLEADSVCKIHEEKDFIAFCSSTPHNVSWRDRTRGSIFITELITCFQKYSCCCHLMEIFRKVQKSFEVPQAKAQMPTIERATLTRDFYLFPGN
Here is the method: as §1

Test [5] addresses T5, Caspase-9 (Homo sapiens, UniProt P55211).
T5 sequence (P55211 whole entry): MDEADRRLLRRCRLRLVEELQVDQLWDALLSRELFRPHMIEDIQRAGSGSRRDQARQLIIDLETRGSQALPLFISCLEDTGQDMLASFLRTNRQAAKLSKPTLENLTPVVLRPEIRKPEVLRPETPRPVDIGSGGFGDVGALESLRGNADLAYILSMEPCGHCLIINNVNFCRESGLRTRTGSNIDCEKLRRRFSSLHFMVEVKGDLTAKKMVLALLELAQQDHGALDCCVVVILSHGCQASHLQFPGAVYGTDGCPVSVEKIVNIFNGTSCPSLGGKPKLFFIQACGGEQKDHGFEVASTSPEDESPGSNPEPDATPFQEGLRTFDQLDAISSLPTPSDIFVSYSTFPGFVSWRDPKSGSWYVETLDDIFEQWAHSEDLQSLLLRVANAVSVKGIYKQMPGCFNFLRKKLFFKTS
As to the method: as §1

pIC50: −log10 of the molar value.

On to `CC(C(=O)O)c1cccc(C(=O)c2ccccc2)c1` (stereo not given) [2-(3-benzoylphenyl)propanoic acid], for which the pIC50 in test [1] is under 4.18; in test [2], 4.30; in test [3], 5.00; in test [4], 5.00; in test [5], 5.00.
`O=C(O)CCC(=O)c1ccc(-c2ccccc2)cc1` [3-(4-biphenylylcarbonyl)propionic acid]: the pIC50 in test [1] was 5.36; in test [2], 5.92; in test [3], 6.24; in test [4] it was 6.06; in test [5], 6.12.
`COc1ccc2cc([C@H](C)C(=O)O)ccc2c1` [(2S)-2-(6-methoxynaphthalen-2-yl)propanoic acid]: the pIC50 was under 4.18 in test [1]; 4.26 in test [2]; 4.82 in test [3]; 4.96 in test [4]; 5.00 in test [5].
Regarding `CC(C(=O)O)c1ccc(N2Cc3ccccc3C2=O)cc1` (stereo not drawn) [(+)-2-(4-(1-oxoisoindolin-2-yl)phenyl)propanoic acid], the pIC50 in test [1] is 5.44; in test [2], 5.85; in test [3] it was 6.24; in test [4], 6.23; in test [5], 6.52.
For `O=C(O)Cc1ccc(-c2ccccc2)cc1` [Felbinac], the negative logarithm of the IC50 (pIC50) in test [1] was 4.46; in test [2], 4.85; in test [3], 5.70; in test [4], 5.59; in test [5] it was 5.74.
For the molecule `CC(C(=O)O)c1ccc(C(=O)c2ccccc2)s1` (stereo not given) [Tiaprofenic acid], the pIC50 is 5.80 in test [1]; 6.09 in test [2]; 6.42 in test [3]; 6.33 in test [4]; 5.66 in test [5].
Consider `O=C(c1ccccc1)c1ccc2n1CCC2C(=O)O` (stereo not given) [Toradol], for which the pIC50 was 4.74 in test [1]; 5.60 in test [2]; 6.07 in test [3]; 6.00 in test [4]; 6.07 in test [5].
